Like-named read-outs stand apart in the source and are kept apart here.
Columns and labels:
[1] = test system: muscular relaxation induced by rocuronium bromide; assay: Reversal of rocuronium bromide induced muscular relaxation in anaesthetised Guinea pigs (TOF-Watch SX monitor); format: in vivo, Guinea pig
From the text: After pentobarbital sodium anesthesia in the abdominal cavity, the Guinea pigs are fixed on rat boards and connected to small animal ventilators after endotracheal intubation. Stimulating electrodes of a muscular relaxation monitor, TOF-Watch SX, are respectively connected to left post-femur and post-tibialis subcutis of the Guinea pig. Self-made tools are used to fix the left tibialis on a small platform while permitting the left hind paw to be able to move freely. A sensor is fixed on a palm surface of a left hind leg of the Guinea pig and a probe of skin temperature is fixed on a palm surface of a left front leg of the Guinea pig.

[2] = test system: small mice; settings: according to reports; cited from earlier work
[3] = test system: small mice; assay: Toxic reactions after intravenous tail injection in male small mice; settings: intravenous injection at the tail, 200 mg/ml, 4000 mg/kg
From the text: (§1) Male small mice are processed with intravenous injection with compounds of the present invention at the tails.

[4] = test system: small mice; settings: mouse, in vivo, iv, 4000 mg/kg
From the text: as §1

[5] = Guinea pig, compound 2 mg/kg given when TOFR disappears and T1 decreases more than 80%, after i.v. rocuronium bromide (twice ED90 dose)
[6] = guinea pig, in vivo, iv, 2 mg/kg

Molecule	T1 recovering to 25%/time [1, 6]	T1 recovering to 50%/time [1, 6]	T1 recovering to 75%/time [1, 6]	TOF recovering to 50%/time [1, 6]	TOF recovering to 75%/time [1, 6]	result description (toxic reactions) [3]	also measured
6-per-deoxy-6-per-(N-ethyl-D-cysteine)thioether-β-cyclodextrin [CD-28]							T1 recovering to 25%/time [1, 5]: 8.25 min; T1 recovering to 50%/time [1, 5]: 12.25 min; T1 recovering to 75%/time [1, 5]: 15.00 min; TOF recovering to 50%/time [1, 5]: 12.75 min; TOF recovering to 75%/time [1, 5]: 16.25 min
6-per-deoxy-6-per-(N-ethyl-D-cysteine)thioether-β-cyclodextrin sodium salt [CD-29]	6.75 min	8.50 min	9.25 min	6.50 min	8.25 min		
6-per-deoxy-6-per-(N-methyl-D-cysteine)thioether-β-cyclodextrin [CD-26]							T1 recovering to 25%/time [1, 5]: 7.75 min; T1 recovering to 50%/time [1, 5]: 12.25 min; T1 recovering to 75%/time [1, 5]: 16.00 min; TOF recovering to 50%/time [1, 5]: 8.00 min; TOF recovering to 75%/time [1, 5]: 11.75 min
6-per-deoxy-6-per-(N-methyl-D-cysteine)thioether-β-cyclodextrin sodium salt [CD-27]	8.25 min	11.25 min	16.00 min	8.25 min	10.75 min		
6-per-deoxy-6-per-(α-L-glycine ethyl)thioether-γ-cyclodextrin [CD-16]	2.25 min	3.50 min	8.50 min	3.50 min	5.75 min		
6-per-deoxy-6-per-(α-L-glycine methyl)sulfinyl-γ-cyclodextrin [CD-5]	3.50 min	4.25 min	8.25 min	4.75 min	7.25 min		
O=C(O)CCSC[C@H]1O[C@@H]2O[C@H]3[C@H](O)[C@@H](O)[C@@H](O[C@H]4[C@H](O)[C@@H](O)[C@@H](O[C@H]5[C@H](O)[C@@H](O)[C@@H](O[C@H]6[C@H](O)[C@@H](O)[C@@H](O[C@H]7[C@H](O)[C@@H](O)[C@@H](O[C@H]8[C@H](O)[C@@H](O)[C@@H](O[C@H]9[C@H](O)[C@@H](O)[C@@H](O[C@H]1[C@H](O)[C@H]2O)O[C@@H]9CSCCC(=O)O)O[C@@H]8CSCCC(=O)O)O[C@@H]7CSCCC(=O)O)O[C@@H]6CSCCC(=O)O)O[C@@H]5CSCCC(=O)O)O[C@@H]4CSCCC(=O)O)O[C@@H]3CSCCC(=O)O [Bridion, sugammadex]							maximal safe dose [2]: 2000 mg/kg
N[C@@H](CSC[C@H]1O[C@@H]2O[C@H]3[C@H](O)[C@@H](O)[C@@H](O[C@H]4[C@H](O)[C@@H](O)[C@@H](O[C@H]5[C@H](O)[C@@H](O)[C@@H](O[C@H]6[C@H](O)[C@@H](O)[C@@H](O[C@H]7[C@H](O)[C@@H](O)[C@@H](O[C@H]8[C@H](O)[C@@H](O)[C@@H](O[C@H]9[C@H](O)[C@@H](O)[C@@H](O[C@H]1[C@H](O)[C@H]2O)O[C@@H]9CSC[C@H](N)C(=O)[O-])O[C@@H]8CSC[C@H](N)C(=O)[O-])O[C@@H]7CSC[C@H](N)C(=O)[O-])O[C@@H]6CSC[C@H](N)C(=O)[O-])O[C@@H]5CSC[C@H](N)C(=O)[O-])O[C@@H]4CSC[C@H](N)C(=O)[O-])O[C@@H]3CSC[C@H](N)C(=O)[O-])C(=O)[O-].[Na+].[Na+].[Na+].[Na+].[Na+].[Na+].[Na+].[Na+] [CD-7, 6-per-deoxy-6-per-(α-L-glycinemethyl)thioether-γ-cyclodextrin sodium salt]	1.25 min	1.50 min	2.75 min	1.25 min	1.50 min	normal	
CC(=O)NC(CSC[C@H]1O[C@@H]2O[C@H]3[C@H](O)[C@@H](O)[C@@H](O[C@H]4[C@H](O)[C@@H](O)[C@@H](O[C@H]5[C@H](O)[C@@H](O)[C@@H](O[C@H]6[C@H](O)[C@@H](O)[C@@H](O[C@H]7[C@H](O)[C@@H](O)[C@@H](O[C@H]8[C@H](O)[C@@H](O)[C@@H](O[C@H]9[C@H](O)[C@@H](O)[C@@H](O[C@H]1[C@H](O)[C@H]2O)O[C@@H]9CSCC(NC(C)=O)C(=O)O)O[C@@H]8CSCC(NC(C)=O)C(=O)O)O[C@@H]7CSCC(NC(C)=O)C(=O)O)O[C@@H]6CSCC(NC(C)=O)C(=O)O)O[C@@H]5CSCC(NC(C)=O)C(=O)O)O[C@@H]4CSCC(NC(C)=O)C(=O)O)O[C@@H]3CSCC(NC(C)=O)C(=O)O)C(=O)O (stereo partly drawn) [CD-8, 6-per-deoxy-6-per-(N-acetylglycinemethyl)thioether-γ-cyclodextrin]		2.75 min	4.25 min	2.50 min	3.50 min		
CC(=O)NC(CSC[C@H]1O[C@@H]2O[C@H]3[C@H](O)[C@@H](O)[C@@H](O[C@H]4[C@H](O)[C@@H](O)[C@@H](O[C@H]5[C@H](O)[C@@H](O)[C@@H](O[C@H]6[C@H](O)[C@@H](O)[C@@H](O[C@H]7[C@H](O)[C@@H](O)[C@@H](O[C@H]8[C@H](O)[C@@H](O)[C@@H](O[C@H]9[C@H](O)[C@@H](O)[C@@H](O[C@H]1[C@H](O)[C@H]2O)O[C@@H]9CSCC(NC(C)=O)C(=O)[O-])O[C@@H]8CSCC(NC(C)=O)C(=O)[O-])O[C@@H]7CSCC(NC(C)=O)C(=O)[O-])O[C@@H]6CSCC(NC(C)=O)C(=O)[O-])O[C@@H]5CSCC(NC(C)=O)C(=O)[O-])O[C@@H]4CSCC(NC(C)=O)C(=O)[O-])O[C@@H]3CSCC(NC(C)=O)C(=O)[O-])C(=O)[O-].[Na+].[Na+].[Na+].[Na+].[Na+].[Na+].[Na+].[Na+] (stereo partly drawn) [CD-9, 6-per-deoxy-6-per-(N-acetylglycinemethyl)thioether-γ-cyclodextrin sodium salt]	1.25 min	1.75 min		1.50 min	3.25 min	normal	
N[C@@H](CCSC[C@H]1O[C@@H]2O[C@H]3[C@H](O)[C@@H](O)[C@@H](O[C@H]4[C@H](O)[C@@H](O)[C@@H](O[C@H]5[C@H](O)[C@@H](O)[C@@H](O[C@H]6[C@H](O)[C@@H](O)[C@@H](O[C@H]7[C@H](O)[C@@H](O)[C@@H](O[C@H]8[C@H](O)[C@@H](O)[C@@H](O[C@H]9[C@H](O)[C@@H](O)[C@@H](O[C@H]1[C@H](O)[C@H]2O)O[C@@H]9CSCC[C@H](N)C(=O)[O-])O[C@@H]8CSCC[C@H](N)C(=O)[O-])O[C@@H]7CSCC[C@H](N)C(=O)[O-])O[C@@H]6CSCC[C@H](N)C(=O)[O-])O[C@@H]5CSCC[C@H](N)C(=O)[O-])O[C@@H]4CSCC[C@H](N)C(=O)[O-])O[C@@H]3CSCC[C@H](N)C(=O)[O-])C(=O)[O-].[Na+].[Na+].[Na+].[Na+].[Na+].[Na+].[Na+].[Na+] [CD-17, 6-per-deoxy-6-per-(α-L-amino acid ethyl)thioether-γ-cyclodextrin sodium salt]						normal	T1 recovering to 25%/time [1, 5]: 3.00 min; T1 recovering to 50%/time [1, 5]: 5.25 min; T1 recovering to 75%/time [1, 5]: 7.75 min; TOF recovering to 50%/time [1, 5]: 3.00 min; TOF recovering to 75%/time [1, 5]: 6.25 min
CC(C)(SC[C@H]1O[C@@H]2O[C@H]3[C@H](O)[C@@H](O)[C@@H](O[C@H]4[C@H](O)[C@@H](O)[C@@H](O[C@H]5[C@H](O)[C@@H](O)[C@@H](O[C@H]6[C@H](O)[C@@H](O)[C@@H](O[C@H]7[C@H](O)[C@@H](O)[C@@H](O[C@H]8[C@H](O)[C@@H](O)[C@@H](O[C@H]9[C@H](O)[C@@H](O)[C@@H](O[C@H]1[C@H](O)[C@H]2O)O[C@@H]9CSC(C)(C)[C@@H](N)C(=O)[O-])O[C@@H]8CSC(C)(C)[C@@H](N)C(=O)[O-])O[C@@H]7CSC(C)(C)[C@@H](N)C(=O)[O-])O[C@@H]6CSC(C)(C)[C@@H](N)C(=O)[O-])O[C@@H]5CSC(C)(C)[C@@H](N)C(=O)[O-])O[C@@H]4CSC(C)(C)[C@@H](N)C(=O)[O-])O[C@@H]3CSC(C)(C)[C@@H](N)C(=O)[O-])[C@@H](N)C(=O)[O-].[Na+].[Na+].[Na+].[Na+].[Na+].[Na+].[Na+].[Na+] [CD-20, 6-per-deoxy-6-per-(α-D-amino acid dimethyl)sulfinyl-γ-cyclodextrin sodium salt]							result description (toxic reactions) [4]: normal
N[C@H](CSC[C@H]1O[C@@H]2O[C@H]3[C@H](O)[C@@H](O)[C@@H](O[C@H]4[C@H](O)[C@@H](O)[C@@H](O[C@H]5[C@H](O)[C@@H](O)[C@@H](O[C@H]6[C@H](O)[C@@H](O)[C@@H](O[C@H]7[C@H](O)[C@@H](O)[C@@H](O[C@H]8[C@H](O)[C@@H](O)[C@@H](O[C@H]1[C@H](O)[C@H]2O)O[C@@H]8CSC[C@@H](N)C(=O)[O-])O[C@@H]7CSC[C@@H](N)C(=O)[O-])O[C@@H]6CSC[C@@H](N)C(=O)[O-])O[C@@H]5CSC[C@@H](N)C(=O)[O-])O[C@@H]4CSC[C@@H](N)C(=O)[O-])O[C@@H]3CSC[C@@H](N)C(=O)[O-])C(=O)[O-].[Na+].[Na+].[Na+].[Na+].[Na+].[Na+].[Na+] [CD-25, 6-per-deoxy-6-per-(α-D-glycinemethyl)thioether-β-cyclodextrin sodium salt]						normal	

Source: patent publication US10017584B2, “6-deoxy-6-thioether-amino acid cyclodextrin derivative and preparation method thereof” (Hangzhou Adamerck Pharmlabs Inc., priority 2010, dated 2018)
